In patent US4431664A, “Compound with antiulcerogenic activity, process for the preparation thereof and pharmaceutical composition therefrom” (Ausonia Farmaceutici s.r.l., priority 1981, dated 1984):

Tested on: mouse
Experiment: Toxicity by single intraperitoneal administration, LD50 (Litchfield and Wilcoxon)
Format: in vivo
Details: i.p., in words
From the text: The toxicity of AP 880 by single administration has been studied in comparison with the toxicity of ranitidine in mouse, by administration of larger and larger doses of compound (I) by the intraperitoneal route. The LD50 values, determined according to the method of Litchfield and Wilcoxon (J. Pharm. Exp. Ther. 96-99, (1949)) are reported in the following Table: […]

CN(C)Cc1ccc(CSCCNC(=C[N+](=O)[O-])NCc2ccc3c(c2)OCO3)o1 [AP 880, N-(2-(((5-(dimethylamino)-methyl-2-furanyl)-methyl)-thio)-ethyl)-N'-(3,4-methylenedioxybenzyl)-2-nitro-1,1-ethendiamine]
toxicity with respect to ranitidine: substantially lower toxicity
